Source: patent US10221163B2 (priority 2015, dated 2019)
Values after ≈ are worked out from the molar mass of the structure shown.

Experiments:
[1] = tested on: MB 5890 Trans pFlp-Vim2 plasmid (OprD+, efflux−); experiment: microbe, parasite or virus in culture; assay type: cell-based, Pseudomonas aeruginosa
[2] = tested on: MB9862: MB 5890 Trans pFlp-Vim1 (OprD+, efflux−); experiment: microbe, parasite or virus in culture; assay type: cell-based, Pseudomonas aeruginosa
[3] = tested on: Pseudomonas aeruginosa MB 5890 (OprD+, efflux−); experiment: microbe, parasite or virus in culture; assay type: cell-based
[4] = tested on: MB 9861: MB 5919 Trans pFlp-Vim1 plasmid (OprD+, efflux+); experiment: microbe, parasite or virus in culture; assay type: cell-based, Pseudomonas aeruginosa
[5] = tested on: MB 5919 Trans pFlp-Vim2 plasmid (OprD+, efflux+); experiment: microbe, parasite or virus in culture; assay type: cell-based, Pseudomonas aeruginosa
[6] = tested on: MB 9799: MB 5890 Trans IMP1 plasmid (OprD+, efflux−); experiment: microbe, parasite or virus in culture; assay type: cell-based, Pseudomonas aeruginosa
[7] = tested on: Pseudomonas aeruginosa MB 5919 (OprD+, efflux+); experiment: microbe, parasite or virus in culture; assay type: cell-based
[8] = tested on: MB 9798: MB 5919 Trans IMP1 plasmid (OprD+, efflux+); experiment: microbe, parasite or virus in culture; assay type: cell-based, Pseudomonas aeruginosa
[9] = target: VIM-1 (Pseudomonas aeruginosa (strain ATCC 15692 / DSM 22644 / CIP 104116 / JCM 14847 / LMG 12228 / 1C / PRS 101 / PAO1), UniProt A0A0F7KYQ8); experiment: biochemical; details: fluorescence assay, CCF2-FA substrate, 30 pM enzyme, 2 hours at 25° C.; read-out: VIM-1 IC50
Method in brief: (§1)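 Fluorescence assay, CCF2-FA substrate (cephalosporin core linking 7-hydroxycoumarin to fluorescein); inhibitor + MBL + substrate, 2 h, 25° C. IC50 by 4-parameter fit, semi-log plot.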

[10] = tested on: Pseudomonas aeruginosa efflux+ (MB9798), IMP-1; assay type: cell-based; parameters: Concentration of metallo-β-lactamase inhibitor which restores susceptibility of efflux + (MB9798) strain to imipenem: unit not given here; details: efflux+ MB9798; imipenem at 2 μg/mL; in the presence of a class A, C, D serine β-lactamase inhibitor closely related to relebactam
Method in brief: (§2)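 PAO1 pair, broth microdilution; fixed β-lactam (imipenem/ceftazidime) at ~CLSI breakpoint + fixed class A/C BLI for AmpC; serial MBLi titration; endpoint = MBLi conc. restoring susceptibility; MB9798:MB9799 ratio = efflux liability.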

[11] = tested on: Pseudomonas aeruginosa efflux− (MB9799), IMP-1; assay type: cell-based; details: efflux− MB9799; imipenem at 2 μg/mL; in the presence of a class A, C, D serine β-lactamase inhibitor closely related to relebactam
Method in brief: as §2

[12] = tested on: Escherichia coli expressing NDM-1 (CLB30005, CLB30016); assay type: cell-based; details: NDM-1 strain, with imipenem 1 μg/ml, 95% inhibition of bacterial growth
Method in brief: (§3)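 Growth by absorbance after 22–24 h at 35°C defined the read-out, with imipenem fixed at 1 μg/ml alongside compound. Inocula came from overnight blood-agar colonies at 35°C, resuspended in saline and diluted 1:100 in 1.1×CAMHB.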

[13] = tested on: Klebsiella pneumoniae expressing VIM-1 (IHMA599644); assay type: cell-based; details: VIM-1 strain IHMA599644, with imipenem 1 μg/ml, 95% inhibition of bacterial growth
Method in brief: as §3

[14] = tested on: Serratia marcescens expressing IMP-1 (CL5741); assay type: cell-based; details: IMP-1 strain CL5741, with imipenem 1 μg/ml, 95% inhibition of bacterial growth
Method in brief: as §3

[15] = tested on: Pseudomonas aeruginosa MB9798 vs MB9799; details: fold difference between efflux+ (MB9798) and efflux− (MB9799) strains; imipenem at 2 μg/mL
Method in brief: as §2

[16] = target: NDM-1 (Klebsiella pneumoniae, UniProt C7C422); experiment: biochemical; assay type: biochemical; details: fluorescence assay, CCF2-FA substrate, 1 pM enzyme, 2 hours at 25° C.; read-out: NDM-1 IC50
NDM-1, sequence (C7C422 whole entry, looked up, species assumed): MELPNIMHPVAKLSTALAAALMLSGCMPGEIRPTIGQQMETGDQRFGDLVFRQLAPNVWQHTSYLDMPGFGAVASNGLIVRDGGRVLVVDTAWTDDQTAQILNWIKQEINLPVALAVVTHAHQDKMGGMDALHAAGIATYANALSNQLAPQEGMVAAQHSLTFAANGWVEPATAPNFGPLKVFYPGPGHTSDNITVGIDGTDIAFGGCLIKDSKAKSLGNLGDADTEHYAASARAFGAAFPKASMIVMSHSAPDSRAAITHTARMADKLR
Method in brief: as §1

[17] = target: IMP-1 (Serratia marcescens, UniProt P52699); experiment: biochemical; assay type: biochemical; details: fluorescence assay, CCF2-FA substrate, 2 pM enzyme, 2 hours at 25° C.; read-out: IMP-1 IC50
IMP-1, sequence (P52699 whole entry, looked up, species assumed): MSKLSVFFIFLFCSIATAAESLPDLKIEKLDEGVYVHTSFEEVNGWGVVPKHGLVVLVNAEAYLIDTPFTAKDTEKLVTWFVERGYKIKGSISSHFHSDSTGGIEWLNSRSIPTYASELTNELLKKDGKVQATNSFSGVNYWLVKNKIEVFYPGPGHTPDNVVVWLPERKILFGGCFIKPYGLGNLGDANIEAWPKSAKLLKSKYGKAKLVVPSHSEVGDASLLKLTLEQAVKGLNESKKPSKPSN
Method in brief: as §1

[18] = MB 5890 Trans pFlp-Vim2 plasmid, OprD+, efflux−
[19] = MB9862 = MB 5890 Trans pFlp-Vim1, OprD+, efflux−
[20] = MB 9861 = MB 5919 Trans pFlp-Vim1 plasmid, OprD+, efflux+
[21] = MB 5919 Trans pFlp-Vim2 plasmid, OprD+, efflux+
[22] = MB 9799 = MB 5890 Trans IMP1 plasmid, OprD+, efflux−
[23] = MB 9798 = MB 5919 Trans IMP1 plasmid, OprD+, efflux+

SMILES	MIC [1, 18] [µg/mL]	MIC [2, 19] [µg/mL]	MIC ([3]; MB 5890, OprD+, efflux−) [µg/mL]	MIC [4, 20] [µg/mL]	MIC [5, 21] [µg/mL]	MIC [6, 22] [µg/mL]	MIC ([7]; MB 5919, OprD+, efflux+) [µg/mL]	MIC [8, 23] [µg/mL]	other results
CC[C@H]1OC(=O)[C@H](C)[C@@H](O[C@H]2C[C@@](C)(OC)[C@@H](O)[C@H](C)O2)[C@H](C)[C@@H](O[C@@H]2O[C@H](C)C[C@H](N(C)C)[C@H]2O)[C@](C)(O)C[C@@H](C)CN(C)[C@H](C)[C@@H](O)[C@]1(C)O [Azithromycin]	–	–	–	–	–	–	–	–	MIC ([1]; Pseudomonas aeruginosa): 1 µg/mL (≈ 1.34 µM); MIC ([2]; Pseudomonas aeruginosa): 1 µg/mL (≈ 1.34 µM); MIC ([3]; Pseudomonas aeruginosa): 1 µg/mL (≈ 1.34 µM); MIC ([4]; Pseudomonas aeruginosa): 32 µg/mL (≈ 42.7 µM); MIC ([5]; Pseudomonas aeruginosa): 32 µg/mL (≈ 42.7 µM); MIC ([6]; Pseudomonas aeruginosa): 2 µg/mL (≈ 2.67 µM); MIC ([7]; Pseudomonas aeruginosa): 16 µg/mL (≈ 21.4 µM); MIC ([8]; Pseudomonas aeruginosa): 16 µg/mL (≈ 21.4 µM)
CC(C)(O/N=C(\C(=O)N[C@@H]1C(=O)N2C(C(=O)[O-])=C(C[n+]3ccccc3)CS[C@H]12)c1csc(N)n1)C(=O)O [CAZ, ceftazidime]	64 (≈ 117 µM)	>256	0.5 (≈ 0.915 µM)	>256	128 (≈ 234 µM)	256 (≈ 468 µM)	1 (≈ 1.83 µM)	256 (≈ 468 µM)	–
O=C(N[C@H](CO)[C@H](O)c1ccc([N+](=O)[O-])cc1)C(Cl)Cl [Chloroamphenicol, chloramphenicol]	–	–	–	–	–	–	–	–	MIC ([1]; Pseudomonas aeruginosa): 1 µg/mL (≈ 3.09 µM); MIC ([2]; Pseudomonas aeruginosa): 2 µg/mL (≈ 6.19 µM); MIC ([3]; Pseudomonas aeruginosa): 1 µg/mL (≈ 3.09 µM); MIC ([4]; Pseudomonas aeruginosa): > 64 µg/mL; MIC ([5]; Pseudomonas aeruginosa): > 64 µg/mL; MIC ([6]; Pseudomonas aeruginosa): 1 µg/mL (≈ 3.09 µM); MIC ([7]; Pseudomonas aeruginosa): > 64 µg/mL; MIC ([8]; Pseudomonas aeruginosa): > 64 µg/mL
NCCN1CC[C@@H](NS(=O)(=O)c2ccc(-c3ccc(N)nc3)c(-c3nn[nH]n3)c2S(N)(=O)=O)C1 [Example 500, (R)—N1-(1-(2-aminoethyl)pyrrolidin-3-yl)-4-(6-aminopyridin-3-yl)-3-(2H-tetrazol-5-yl)benzene-1,2-disulfonamide]	–	–	–	–	–	–	–	–	IC50 [9]: 0.071 nM; Concentration of metallo-β-lactamase inhibitor which restores susceptibility of efflux + (MB9798) strain to imipenem [10]: 1.563; Concentration of metallo-β-lactamase inhibitor which restores susceptibility of efflux − (MB9799) strain to imipenem [11]: 1.563; Escherichia coli MITC95 [12]: 1.563 µM; Klebsiella pneumoniae MITC95 [13]: 3.125 µM; Serratia marcescens MITC95 [14]: 1.563 µM; Efflux ratio [15]: 1.00; IC50 [16]: 0.0347 nM; IC50 [17]: 0.164 nM
C[C@@H](O)[C@H]1C(=O)N2C(C(=O)O)=C(SCCN=CN)C[C@H]12 [Imipenem, imipenem]	32 (≈ 107 µM)	64 (≈ 214 µM)	2 (≈ 6.68 µM)	>64	>64	32 (≈ 107 µM)	4 (≈ 13.4 µM)	64 (≈ 214 µM)	–
C[C@@H](O)[C@H]1C(=O)N2C(C(=O)O)=C(S[C@@H]3CN[C@H](C(=O)N(C)C)C3)[C@H](C)[C@H]12 [Meropenem, meropenem]	32 (≈ 83.4 µM)	64 (≈ 167 µM)	0.5 (≈ 1.3 µM)	>64	>64	64 (≈ 167 µM)	2 (≈ 5.22 µM)	>64	–
CCN1CCN(C(=O)N[C@@H](C(=O)N[C@@H]2C(=O)N3[C@@H]2SC(C)(C)[C@@H]3C(=O)O)c2ccccc2)C(=O)C1=O [Piperalln, piperacillin]	128 (≈ 247 µM)	128 (≈ 247 µM)	1 (≈ 1.93 µM)	>256	>256	4 (≈ 7.73 µM)	2 (≈ 3.86 µM)	4 (≈ 7.73 µM)	–
